Experimental data from patent US20170304388A1, “NEW INDICATION OF CARDIOVASCULAR DRUGS FOR PREPARATION OF CANCER INHIBITION PHARMACEUTICAL COMPOSITION” (LAUNX BIOMEDICAL CO., LTD., priority 2014, published 2017).

How the values were obtained:
Type in all cases: cell-based
[1] = test system: A375 (Amelanotic Melanoma); test: Cell viability analysis (WST-1), A375; conditions: Homo sapiens, A-375, 72 h, Table 4, repeated experiments, drug 10 μM, WST-1, read-out: survival rate (viability) of cancer cells, A375
[2] = test system: MKN-45 (Gastric Adenocarcinoma); test: Cell viability analysis (WST-1), MKN-45; conditions: Homo sapiens, MKN-45, 72 h, Table 4, repeated experiments, drug 10 μM, WST-1, read-out: survival rate (viability) of cancer cells, MKN-45
786-O = test: Cell viability analysis (WST-1), 786-O; conditions: Homo sapiens, 786-0, 72 h, Table 4, repeated experiments, drug 10 μM, read-out: survival rate (viability) of cancer cells, 786-O
Summary of the method: (§1)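 Wells receive 3000 cells, and the medium is swapped for drug at 10 μM. Seventy-two hours later, WST-1 reagent diluted 9:1 with medium is added, plates sit at 37° C for 30–90 minutes, and OD450 nm yields survival rate.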

[3] = test system: AGS (Gastric Adenocarcinoma); test: Cell viability analysis (WST-1), AGS; conditions: 72 h, Table 4, repeated experiments, drug 10 μM, WST-1, read-out: survival rate (viability) of cancer cells, AGS
[4] = test system: HepG2 (Hepatocellular Carcinoma); test: Cell viability analysis (WST-1), HepG2; conditions: Homo sapiens, HepG2, 72 h, Table 4, repeated experiments, drug 10 μM, WST-1, read-out: survival rate (viability) of cancer cells, HepG2
BxPC-3 = test: Cell viability analysis (WST-1), BxPC-3; conditions: Homo sapiens, BXPC-3, 72 h, Table 4, repeated experiments, drug 10 μM, read-out: survival rate (viability) of cancer cells, BxPC-3
Summary of the method: as §1

[5] = test system: A549 (Lung Adenocarcinoma); test: Cell viability analysis (WST-1), A549; conditions: Homo sapiens, A549, 72 h, Table 4, repeated experiments, drug 10 μM, WST-1, read-out: survival rate (viability) of cancer cells, A549
NIH-OVCAR-3 = test: Cell viability analysis (WST-1), NIH-OVCAR-3; conditions: Homo sapiens, OVCAR-3, 72 h, Table 4, repeated experiments, drug 10 μM, read-out: survival rate (viability) of cancer cells, NIH-OVCAR-3
Summary of the method: as §1

[6] = test system: MCF7 (Mammary Gland, Adenocarcinoma); test: Cell viability analysis (WST-1), MCF7; conditions: Homo sapiens, MCF7, 72 h, Table 4, repeated experiments, drug 10 μM, WST-1, read-out: survival rate (viability) of cancer cells, MCF-7
cancer cell lines = test: Growth inhibitory effects on the panel of cancer cell lines; conditions: drug 10 μM, 72 hours, WST-1
AsPC-1 = test: Cell viability analysis (WST-1), AsPC-1; conditions: Homo sapiens, ASPC1, 72 h, Table 4, repeated experiments, drug 10 μM, read-out: survival rate (viability) of cancer cells, AsPC-1
Summary of the method: as §1

[7] = test system: HCT116 (Colorectal Carcinoma); test: Cell viability analysis (WST-1), HCT116; conditions: Homo sapiens, HCT-116, 72 h, Table 4, repeated experiments, drug 10 μM, WST-1, read-out: survival rate (viability) of cancer cells, HCT116
BCC = test: Cell viability analysis (WST-1), BCC; conditions: BCC, 72 h, Table 4, repeated experiments, drug 10 μM, read-out: survival rate (viability) of cancer cells, BCC
[8] = test system: TSGH-8301 (Urinary Bladder Carcinoma); test: Cell viability analysis (WST-1), TSGH-8301; conditions: 72 h, Table 4, repeated experiments, drug 10 μM, WST-1, read-out: survival rate (viability) of cancer cells, TSGH-8301
C-33A = test: Cell viability analysis (WST-1), C-33A; conditions: Homo sapiens, C-33-A, 72 h, Table 4, repeated experiments, drug 10 μM, read-out: survival rate (viability) of cancer cells, C-33A
Summary of the method: as §1

U2OS = test: Cell viability analysis (WST-1), U2OS; conditions: Homo sapiens, U2OS, 72 h, Table 4, repeated experiments, drug 10 μM, read-out: survival rate (viability) of cancer cells, U2OS
Summary of the method: as §1

[9] = test system: PC3 (Prostate Adenocarcinoma); test: Cell viability analysis (WST-1), PC3; conditions: 72 h, Table 4, repeated experiments, drug 10 μM, WST-1, read-out: survival rate (viability) of cancer cells, PC-3
MDA-MB231 = test: Cell viability analysis (WST-1), MDA-MB231; conditions: Homo sapiens, MDA-MB-231, 72 h, Table 4, repeated experiments, drug 10 μM, read-out: survival rate (viability) of cancer cells, MDA-MB231
[10] = test system: HeLa (Cervix Adenocarcinoma); test: Cell viability analysis (WST-1), HeLa; conditions: Homo sapiens, HeLa, 72 h, Table 4, repeated experiments, drug 10 μM, WST-1, read-out: survival rate (viability) of cancer cells, HeLa
[11] = test system: LoVo (Colorectal Adenocarcinoma); test: Cell viability analysis (WST-1), LoVo; conditions: Homo sapiens, LoVo, 72 h, Table 4, repeated experiments, drug 10 μM, WST-1, read-out: survival rate (viability) of cancer cells, LoVo
SAS = test: Cell viability analysis (WST-1), SAS; conditions: 72 h, Table 4, repeated experiments, drug 10 μM, read-out: survival rate (viability) of cancer cells, SAS
Summary of the method: as §1

Hep3B = test: Cell viability analysis (WST-1), Hep3B; conditions: Homo sapiens, Hep3B, 72 h, Table 4, repeated experiments, drug 10 μM, read-out: survival rate (viability) of cancer cells, Hep3B
Summary of the method: as §1

TOV-21G = test: Cell viability analysis (WST-1), TOV-21G; conditions: Homo sapiens, TOV21G, 72 h, Table 4, repeated experiments, drug 10 μM, read-out: survival rate (viability) of cancer cells, TOV-21G
Summary of the method: as §1

[12] = test system: H1650 (Lung Adenocarcinoma); test: Cell viability analysis (WST-1), H1650; conditions: Homo sapiens, NCI-H1650, 72 h, Table 4, repeated experiments, drug 10 μM, WST-1, read-out: survival rate (viability) of cancer cells, H1650
T24 = test: Cell viability analysis (WST-1), T24; conditions: Homo sapiens, T-24, 72 h, Table 4, repeated experiments, drug 10 μM, read-out: survival rate (viability) of cancer cells, T24
Summary of the method: as §1

Row | Compound | viability at 10 µM [1] | viability at 10 µM [2] | viability at 10 µM (786-O) | viability at 10 µM [3] | viability at 10 µM [4] | viability at 10 µM (BxPC-3) | viability at 10 µM [5] | viability at 10 µM (NIH-OVCAR-3) | viability at 10 µM [6] | inhibition effect on different cancer cell lines (in words) (cancer cell lines) | viability at 10 µM (AsPC-1) | viability at 10 µM [7] | viability at 10 µM (BCC) | viability at 10 µM [8] | viability at 10 µM (C-33A) | viability at 10 µM (U2OS) | viability at 10 µM [9] | viability at 10 µM (MDA-MB231) | viability at 10 µM [10] | viability at 10 µM [11] | further results
1 | CC(C)N(CCC(C(N)=O)(c1ccccc1)c1ccccn1)C(C)C (stereo not shown) [Disopyramide Phosphate] | 114% | 111% | 102% | 95.9% | 109% | 69.9% | 99.4% | 103% | 107% | significant inhibition effect | 77.2% | 94% | 110% | 115% | 98.5% | 98.7% | 103% | 98.8% | 103% | 105% | viability at 10 µM (SAS): 96.9%; viability at 10 µM (Hep3B): 113%; viability at 10 µM (TOV-21G): 94.3%; viability at 10 µM [12]: 90.5%; viability at 10 µM (T24): 87.6%
2 | OC(CNCC(O)C1CCc2cc(F)ccc2O1)C1CCc2cc(F)ccc2O1 (stereo not shown) [Nebivolol(Bystolic), Nebivolol] | 44.9% | 52.8% | 38.3% | 26.6% | 42.1% | 74.4% | 49% | 86.8% | 27% | significant inhibition effect | 88.7% | 81.9% | 55.8% | 38% | 77% | 66.6% | 37% | 66.4% | 52% | 85.3% | viability at 10 µM (SAS): 75.6%; viability at 10 µM (Hep3B): 44.8%; viability at 10 µM (TOV-21G): 86.2%; viability at 10 µM [12]: 87.4%; viability at 10 µM (T24): 97.6%
3 | COCCOC(=O)C1=C(C)NC(C)=C(C(=O)OC/C=C/c2ccccc2)C1c1cccc([N+](=O)[O-])c1 (stereo not shown) [Cilnidipine] | 47.1% | 105% | 86.7% | 76.9% | 77.1% | 68.7% | 67.8% | 75.9% | 64.6% | significant inhibition effect | 57.6% | 88.6% | 60.2% | 95.9% | 93% | 43.1% | 61.4% | 86.3% | 64.3% | 53.7% | viability at 10 µM (SAS): 38.9%; viability at 10 µM (Hep3B): 92.7%; viability at 10 µM (TOV-21G): 62.9%; viability at 10 µM [12]: 69%; viability at 10 µM (T24): 108%
4 | COc1ccc(-c2nc3ccc(C4=NNC(=O)CC4C)cc3[nH]2)cc1 (stereo not shown) [Pimobendan (Vetmedin), Pimobendan] | 44.4% | 65.2% | 39.6% | 60.8% | 87.2% | 51.9% | 58.3% | 74.7% | 53.9% | significant inhibition effect | 69.3% | 53.6% | 49.6% | 59.4% | 62.8% | 56.6% | 69.5% | 75% | 34% | 66.7% | viability at 10 µM (SAS): 51.1%; viability at 10 µM (Hep3B): 94.8%; viability at 10 µM (TOV-21G): 70.7%; viability at 10 µM [12]: 77.8%; viability at 10 µM (T24): 74.2%
